“Also recorded” adds a separate entry of the source.
Key:
[1] = tested on: POMGNT1 knockout human RPE cells; assay: Trans-epithelial electrical resistance (TEER) of RPE monolayers; assay type: cell-based; details: transwell culture
Experimental: The RPE is a polarized epithelial monolayer which lies between the photoreceptors and the choroid. The RPE is essential to keep neural retinal healthy by maintenance of many important functions including light absorption, trans-epithelial transport, phagocytosis, and secretion of growth factors. The feature of healthy RPE is the generation of a trans-epithelial electrical resistance by specific tight junctions between epithelial cells. Trans-epithelial electrical resistance (TEER) was determined in RPE monolayers in WT and POMGNT1 knockout cells using Millicell-ERS Voltmeter (MERS00002, EMD Millipore) with transwell culture to evaluate the cell monolayer integrity.
POMGNT1 knockout human RPE cell were treated with RIPA-56, a potent, selective RIP1 inhibitor or with GW806742X, a MLKL inhibitor.

[2] = tested on: POMGNT1 knockout human RPE cells; assay: Immunoblotting of autophagy-related proteins and necroptosis markers; assay type: cell-based
Pomgnt1^L120R/L120R mice = assay: Scotopic ERG after treatment of Pomgnt1^L120R/L120R mice; assay type: in vivo; details: 6-month-old mice, 3 months after injection; compared with AAV8-GFP treated group; RIPA-56 10 mg/Kg twice a week IP; AAV 1 μL 1×10^9 vg subretinal
Experimental: To evaluate retinal function in vivo, ERG was recorded with various light stimulus intensities under dark-adapted scotopic condition. Scotopic ERG records rod photoreceptor (a-wave), signal from rod to rod bipolar cell (b-wave), and retinal pigment epithelium (c-wave). […] This reduction in ERG a-, b, and c-wave amplitude indicated the function of rod photoreceptor, rod bipolar cells post-synaptic signal and RPE were greatly affected in Pomgnt1^L120R/L120R mouse retina.

| scotopic ERG a-, b-, and c-wave amplitudes (Pomgnt1^L120R/L120R mice) | SMILES | TEER level [1] | expression of beclin1, p62 and LC3b [2] | phospho-RIP3 and phosphor-MLKL [2] |
| --- | --- | --- | --- | --- |
|  | CN(c1ccc(NC(=O)Nc2ccc(OC(F)(F)F)cc2)cc1)c1ccnc(Nc2cccc(S(N)(=O)=O)c2)n1 [GW806742X] | significant improvement |  |  |
| significantly improved | CCC(C)(C)C(=O)N(O)Cc1ccccc1 [RIPA-56] | significant improvement; also recorded: improve | significantly decrease | inhibit |

Reference: patent publication US20240156755A1, “USE OF RIP1 INHIBITOR OR MLKL INHIBITOR FOR TREATING OR PREVENTING HEREDITARY RETINAL DYSTROPHY” (TZU CHI UNIVERSITY, priority 2022, published 2024)
